Source: article PMC10987949, “Inhibition of HIV-1 release by ADAM metalloproteinase inhibitors” (Frontiers in Microbiology, 2024)
Entries after “also recorded” stand apart in the source; their conditions may differ.

Tests used:
CD62L shedding [1] = experiment: Soluble CD62L ELISA, anti-CD3/PHA stimulated PBMC or CD4 T cells; assay type: cell-based, human; conditions: for inhibition at 10 µM: Homo sapiens, 10 μM compound, stimulated cells; for inhibition at 10 µM / effect on CD62L shedding / soluble CD62L: ELISA; for effect on CD62L shedding / soluble CD62L: stimulated PBMC or CD4 T cells
Outline: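 Healthy-donor PBMC stimulated with okt3 anti-CD3 (~0.2 μg/mL final) plus IL-2 (20 U/mL final) in presence of compound. Soluble CD62L in supernatants measured by ELISA; viability checked by AO/PI staining.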

recombinant ADAM10 = target: T1, recombinant ADAM10 (Homo sapiens, UniProt O14672); experiment: Kinetic cleavage of fluorogenic TNF-α peptide ES003 by recombinant ADAM10; assay type: biochemical; conditions: for inhibition of ADAM10 cleavage of ES003: 2 μM compound; for Ki: ES003 substrate, 4-h time point, non-linear regression, read-out: Inhibition constant Ki ADAM10
T1 construct: purchased R&D systems, Inc
T1 sequence (O14672 214-748): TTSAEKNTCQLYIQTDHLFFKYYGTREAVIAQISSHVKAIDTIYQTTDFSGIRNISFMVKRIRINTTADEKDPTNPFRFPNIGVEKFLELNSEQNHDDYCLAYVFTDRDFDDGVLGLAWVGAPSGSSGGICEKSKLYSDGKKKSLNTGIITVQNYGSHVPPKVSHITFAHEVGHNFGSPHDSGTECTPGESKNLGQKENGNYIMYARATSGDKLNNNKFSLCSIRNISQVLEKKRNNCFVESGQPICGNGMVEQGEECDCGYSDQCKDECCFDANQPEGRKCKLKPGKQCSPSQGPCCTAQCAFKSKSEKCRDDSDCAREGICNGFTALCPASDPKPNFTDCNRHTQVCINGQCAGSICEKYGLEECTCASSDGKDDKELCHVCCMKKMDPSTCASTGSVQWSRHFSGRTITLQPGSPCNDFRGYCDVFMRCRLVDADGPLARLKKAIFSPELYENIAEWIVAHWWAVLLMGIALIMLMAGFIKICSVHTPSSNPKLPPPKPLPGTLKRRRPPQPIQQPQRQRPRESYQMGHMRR
Excerpt: A fluorescence based enzymatic assay was used to measure the cleavage of fluorogenic TNF-α and L-selectin (CD62L) peptides by either recombinant ADAMs or PBMC from healthy donors. The fluorogenic substrate, synthesized by Biomatik^3, was a Dabcyl (4-(4-dimethylaminophenylazo)benzoyl)- and Edans (5-[(2-aminoethyl)amino]naphthalene-1-sulfonic acid)- conjugated 12 amino acid peptide: Dabcyl-[…]-Edans that corresponds to the extracellular membrane proximal region of CD62L. […] The cleavage was measured in a kinetic assay every 3 min for 4 h in black 96-well plates using a Synergy_h1 fluorescent plate reader (BioTek) with 340 nm excitation and 490 nm emission wavelengths. […] PBMC were stimulated with anti-CD3 antibody for 2–4 days as described above.
96-well plate with data recorded every 3 minutes for 4 hours using a Synergy_h1 fluorescent plate reader. Each enzymatic reaction contained 50 -200 ng
Figure 2B and 2C bar diagrams are generated using the
data points at 4 hour time point of the enzymatic cleavages.

CD62L shedding [2] = experiment: Soluble CD62L ELISA, unstimulated PBMC; assay type: cell-based, human; conditions: Homo sapiens, PBMC, read-out: Shedding inhibition Non-stim.
PBMC = PBMC viability (AO/PI staining); assay type: cell-based, human; conditions: for PBMC viability at 24hr post treatment: 10-500 μM of MMP inhibitors for 24hours; for impact on cell viabilities in HIV-1BAL infection: PBMC post infection with HIV-1BAL
Experimental: PBMC from de-identified healthy donors were obtained with informed consent from the Department of Transfusion Medicine, National Institutes of Health under Biological reagent Registry RD-14-IX-12 approved by NIH biological safety board. CD8-depleted PBMCs, either stimulated or non-stimulated with 10 μg/mL phytohaemagglutinin (PHA) or anti-CD3 antibody (with or without conjugated beads), were plated at 2×10^6 cells/ml in 48 well plates in RPMI 1640 + 10%FBS (R10) to a final volume of 1 mL in each well. IL-2 was added at a final concentration of 20 U/mL. CD3 antibody okt3 was used at ~0.2 μg/mL final concentration. Compounds were prepared in appropriate solvents according to the manufacturer’s instructions, diluted to working concentrations using RPMI 1640 + 10%FBS (R10), and added to the cell cultures for 6–24 h for CD62L shedding, and 48 h for TNF-α release. Supernatants were collected and assessed using either the CD62L or TNF-α Duo Set ELISA kit according to manufacturer’s instructions (R&D Systems, Inc.). The viability of cells treated with compounds was assessed by acridine orange / propidiom iodide (AO/PI Logosbio catalog F23001) staining using Luna-FL cell counter following the manufacture’s instruction.^2

[3] = 10 μM compound, non-stimulated cells, ELISA

| SMILES | inhibition at 10 µM (CD62L shedding [1]) [%] | effect on 3,4-dichloroisocouman enhanced CD62L shedding (CD62L shedding [1]; stimulated PBMC) | effect on CD62L shedding / soluble CD62L (CD62L shedding [1]) | concentrations inhibiting ADAM10 enzymatic activity (recombinant ADAM10) [nM] | inhibition of ADAM10 cleavage of ES003 (recombinant ADAM10) | inhibition at 10 µM (CD62L shedding [2]) [%] | PBMC viability at 24hr post treatment (PBMC) | impact on cell viabilities in HIV-1BAL infection (PBMC) | Ki (recombinant ADAM10) [nM] | inhibition at 10 µM (CD62L shedding [2]; [3]) [%] |
| --- | --- | --- | --- | --- | --- | --- | --- | --- | --- | --- |
| CNC(=O)[C@H](Cc1ccccc1)NC(=O)[C@H](CC(C)C)[C@H](CSc1cccs1)C(=O)NO [BB-94, Batimastat] | > 50 | blocked | suppressed CD62L shedding; also recorded: inhibited | 20 to 50 | inhibited both ADAM10 and 17; also recorded: indistinguishable from that of ES003-only curve without the enzyme | > 50 | No significant decrease in the viability | without significant impact to cell viabilities |  |  |
| CNC(=O)[C@@H](NC(=O)[C@H](CCCc1ccccc1)[C@H](C)N(O)C=O)C(C)(C)C [GI254023X] | > 50 |  | suppressed CD62L shedding |  | preferentially inhibited the enzymatic activity of ADAM10 compared to ADAM17 |  | No significant decrease in the viability |  | 11 ± 9 | 20 to 50 |
| CC1(C)SCCN(S(=O)(=O)c2ccc(Oc3ccncc3)cc2)[C@H]1C(=O)NO [prinomastat] | > 50 |  | suppressed CD62L shedding | 20 to 50 | inhibited both ADAM10 and 17 |  |  | without significant impact to cell viabilities | 2 ± 0.4 | > 50 |
